# Laboratory results reported in patent US20040018501A1, “Methods and systems for analyzing complex biological systems” (priority 2001, published 2004).
# Test system: Saccharomyces cerevisiae wild type strain BY4743
# Assay: AF1 yeast metabolite analysis by GC-MS and LC-MS
# Assay type: cell-based
# Details: for Fold Change, NacetylLglutamate: detected metabolite NacetylLglutamate; for Fold Change, NacetylLornithine: detected metabolite NacetylLornithine; for Fold Change, nicotinic acid: detected metabolite nicotinic acid; for Fold Change, nopaline: detected metabolite nopaline; for Fold Change, oleic acid: detected metabolite oleic acid; for Fold Change, ornithine: detected metabolite ornithine; for Fold Change, phenylalanine: detected metabolite phenylalanine; for Fold Change, phosphoenolpyruvate: detected metabolite phosphoenolpyruvate; for Fold Change, pipecolic acid: detected metabolite pipecolic acid; for Fold Change, proline: detected metabolite proline; for Fold Change, pyridoxine: detected metabolite pyridoxine; for Fold Change, selenoDLmethionine: detected metabolite selenoDLmethionine; for Fold Change, serine: detected metabolite serine; for Fold Change, sugar-phosphate: detected metabolite sugar-phosphate; for Fold Change, tetradecanoic acid: detected metabolite tetradecanoic acid; for Fold Change, threonine/homoserin: detected metabolite threonine/homoserin; for Fold Change, thymine: detected metabolite thymine; for Fold Change, tryptophan: detected metabolite tryptophan; for Fold Change, tyrosine: detected metabolite tyrosine; for Fold Change, urocanic acid: detected metabolite urocanic acid; for Fold Change, valine: detected metabolite valine
compound,measurement,setting,value
CC[C@@H]([C@H](C)O)n1ncn(-c2ccc(N3CCN(c4ccc(OC[C@@H]5CO[C@@](Cn6cncn6)(c6ccc(F)cc6F)C5)cc4)CC3)cc2)c1=O [Posaconazole],Fold Change of alanine,GC,1.035
same,Fold Change of asparagine,GC,0.145
same,Fold Change of aspartic acid,GC,−0.071
same,Fold Change of campesterol,GC,0
same,Fold Change of desmosterol,GC,0
same,Fold Change of disaccaride1,GC,0.04733
same,Fold Change of disaccaride2,GC,0.313
same,Fold Change of disaccaride3,GC,0.3407
same,Fold Change of ergosterol,GC,0.808
same,Fold Change of fucosterol,GC,6.722
same,Fold Change of glutamine,GC,0.6439
same,Fold Change of glycanopyrose,GC,1.594
same,Fold Change of glycerol,GC,0.1873
same,Fold Change of glycine,GC,0.08267
same,Fold Change of hexadecanoic acid,GC,−0.01867
same,Fold Change of iso citric acid,GC,0.4
same,Fold Change of isoleucine,GC,0.1023
same,Fold Change of lanosterol,GC,7.464
same,Fold Change of leucine,GC,0.334
same,Fold Change of lysine,GC,0.1586
same,Fold Change of malic acid,GC,0.2942
same,Fold Change of biotin,LC,0
same,Fold Change of folic acid,LC,0
same,"Fold Change, NacetylDglucosamine","detected metabolite NacetylDglucosamine, platform nLC",0
same,"Fold Change, NacetylLglucosamine","detected metabolite NacetylLglucosamine, platform pLC",0
same,"Fold Change, NacetylLglutamate",platform nLC,−0.07165
same,"Fold Change, NacetylLglutamate",platform pLC,0
same,"Fold Change, NacetylLornithine",platform nLC,0
same,"Fold Change, NacetylLornithine",platform pLC,0.1338
same,"Fold Change, TMS mevalonic acid lactone","detected metabolite TMS mevalonic acid lactone, platform GC",−0.3118
same,"Fold Change, mevalonic acid lactone","detected metabolite mevalonic acid lactone, platform GC",0.5555
same,"Fold Change, mevalonic lactone","detected metabolite mevalonic lactone, platform pLC",−0.08368
same,"Fold Change, niacinamide","detected metabolite niacinamide, platform pLC",0
same,"Fold Change, nicotinic acid",platform nLC,1.421
same,"Fold Change, nicotinic acid",platform pLC,−0.8142
same,"Fold Change, nopaline",platform nLC,0.7554
same,"Fold Change, nopaline",platform pLC,0
same,"Fold Change, octadecanoic acid","detected metabolite octadecanoic acid, platform GC",0.321
same,"Fold Change, oleic acid",platform GC,−0.5057
same,"Fold Change, oleic acid",platform nLC,0.5606
same,"Fold Change, ornithine2","detected metabolite ornithine2, platform GC",−0.1383
same,"Fold Change, ornithine3","detected metabolite ornithine3, platform GC",0.041
same,"Fold Change, ornithine",platform nLC,2.314
same,"Fold Change, ornithine",platform pLC,0.4314
same,"Fold Change, orotic acid","detected metabolite orotic acid, platform nLC",0
same,"Fold Change, palmiteliadic acid","detected metabolite palmiteliadic acid, platform GC",−0.2453
same,"Fold Change, palmitic acid","detected metabolite palmitic acid, platform nLC",0.1518
same,"Fold Change, phenylalanine",platform GC,0.06069
same,"Fold Change, phenylalanine",platform nLC,−0.03702
same,"Fold Change, phenylalanine",platform pLC,−0.1585
same,"Fold Change, phenylpyruvic acid","detected metabolite phenylpyruvic acid, platform nLC",0
same,"Fold Change, phosphate","detected metabolite phosphate, platform GC",−0.1833
same,"Fold Change, phosphoenolpyruvate",platform LC,0
same,"Fold Change, phosphoenolpyruvate",platform nLC,0
same,"Fold Change, pinitol","detected metabolite pinitol, platform nLC",0
same,"Fold Change, pipecolic acid",platform nLC,0.1806
same,"Fold Change, pipecolic acid",platform pLC,0.3444
same,"Fold Change, progesterone","detected metabolite progesterone, platform pLC",0
same,"Fold Change, proline",platform LC,0.3157
same,"Fold Change, proline",platform nLC,0.3147
same,"Fold Change, pyridoxine",platform nLC,−0.1015
same,"Fold Change, pyridoxine",platform pLC,−0.239
same,"Fold Change, pyrimidine","detected metabolite pyrimidine, platform GC",0.159
same,"Fold Change, retinoic acid","detected metabolite retinoic acid, platform nLC",0
same,"Fold Change, riboflavin","detected metabolite riboflavin, platform pLC",0
same,"Fold Change, salicylic/HObenzoic","detected metabolite salicylic/HObenzoic, platform nLC",0
same,"Fold Change, selenoDLmethionine",platform nLC,−0.6722
same,"Fold Change, selenoDLmethionine",platform pLC,−0.7083
same,"Fold Change, serine",platform nLC,0.152
same,"Fold Change, serine",platform pLC,0.2417
same,"Fold Change, shikimic acid","detected metabolite shikimic acid, platform nLC",0
same,"Fold Change, sinapinic acid","detected metabolite sinapinic acid, platform nLC",0
same,"Fold Change, sorbitol/mannitol","detected metabolite sorbitol/mannitol, platform nLC",0.009121
same,"Fold Change, squalene","detected metabolite squalene, platform GC",0.07431
same,"Fold Change, succinic","detected metabolite succinic, platform nLC",−0.06141
same,"Fold Change, sucrose","detected metabolite sucrose, platform nLC",0.1847
same,"Fold Change, sugar-phosphate",platform nLC,−0.04543
same,"Fold Change, sugar-phosphate",platform pLC,0
same,Fold Change,"detected metabolite sugar?, platform GC",0.6923
same,"Fold Change, tetradecanoic acid",platform GC,−0.214
same,"Fold Change, tetradecanoic acid",platform nLC,1.029
same,"Fold Change, thiamine","detected metabolite thiamine, platform pLC",0
same,"Fold Change, threonine2","detected metabolite threonine2, platform GC",0.457
same,"Fold Change, threonine3","detected metabolite threonine3, platform GC",0.225
same,"Fold Change, threonine/homoserin",platform nLC,0.04034
same,"Fold Change, threonine/homoserin",platform pLC,0.1437
same,"Fold Change, thymine",platform nLC,0
same,"Fold Change, thymine",platform pLC,0
same,"Fold Change, tms glutamine3","detected metabolite tms glutamine3, platform GC",0.6709
same,"Fold Change, tms lysine4","detected metabolite tms lysine4, platform GC",0.05667
same,"Fold Change, tms tyrosine2","detected metabolite tms tyrosine2, platform GC",1.228
same,"Fold Change, tms tyrosine3","detected metabolite tms tyrosine3, platform GC",0.1911
same,"Fold Change, tryptophan",platform nLC,4.676
same,"Fold Change, tryptophan",platform pLC,0
same,"Fold Change, tyrosine",platform nLC,0.0282
same,"Fold Change, tyrosine",platform pLC,0.1008
same,"Fold Change, uracil","detected metabolite uracil, platform nLC",−0.2779
same,"Fold Change, uric acid","detected metabolite uric acid, platform pLC",0
same,"Fold Change, uridine","detected metabolite uridine, platform nLC",0.02855
same,"Fold Change, urocanic acid",platform nLC,0
same,"Fold Change, urocanic acid",platform pLC,0
same,"Fold Change, valine",platform GC,0.345
same,"Fold Change, valine",platform nLC,0.0195
